Values joined by “and” are separate entries in the source; they are usually repeats but may differ in a detail not shown here. Equal values may be shown once.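 Cells were grown in 96-well plates and exposed to each compound for 48 hours at five concentrations; endpoints were interpolated linearly between bracketing concentrations, or set to the highest concentration if not reached. GI50 is the concentration that inhibits growth by half. Definition used: TGI = concentration required for complete inhibition of growth.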
Legend:
Test in all cases: inhibition of tumour cell growth, NCI panel, 48 h
[1] = tested on: HOP-62 NSCLC
[2] = tested on: OVCAR-4 ovarian
[3] = tested on: OVCAR-8 ovarian
[4] = tested on: EKVX NSCLC
[5] = tested on: SK-MEL-5 melanoma
[6] = tested on: U251 CNS
[7] = tested on: UACC-257 melanoma
[8] = tested on: HCT-116 colon
[9] = tested on: OVCAR-5 ovarian
[10] = tested on: M14 melanoma

SMILES	TGI [1] [µM]	GI50 [2]	TGI [2]	GI50 [3]	TGI [3]	GI50 [4]	TGI [4] [µM]	TGI [5] [µM]	GI50 [6]	TGI [6]	TGI [7] [µM]	GI50 [8]	TGI [8]	TGI [9] [µM]	GI50 [5] [µM]	GI50 [1] [µM]	GI50 [7] [µM]	GI50 [9] [µM]	GI50 [10] [µM]	TGI [10] [µM]
CC(C)=CCC/C(C)=C\CCC1(C)OC(=O)C2CC21 (stereo unspecified)	> 100	> 100 µM and 19.5 µM	> 100 µM and 42.6 µM	71.6 µM and 20.3 µM	> 100 µM and 45.5 µM	> 100 µM and 40 µM	> 100	> 100	51.5 µM and 24.1 µM	> 100 µM and 61.4 µM	> 100	52.3 µM and 16.6 µM	> 100 µM and 31.6 µM	> 100						
Nc1ccc(-c2cccs2)cc1NC(=O)c1ccc(CCCC(=O)Nc2ccc(C3CC3N)cc2)cc1 (stereo unspecified)		1.52 µM	3.3 µM	1.65 µM	4.48 µM	3.5 µM	> 100	6.23	1.6 µM	3.16 µM					1.91					
COc1ccc2c(c1)C(=O)/C(=C/c1ccc([N+](=O)[O-])o1)O2	4.09	0.81 µM	2.06 µM	1.21 µM	5.4 µM			3.02	1.64 µM	3.43 µM	3.45	0.495 µM	1.22 µM	3.64	1.58	1.82	1.61	1.8	1.64	3.32
O=C1C2C(C(=O)N1c1ccccc1)C1([N+](=O)[O-])C=C3c4ccccc4N(C(=O)c4ccccc4)C32C2C(=O)N(c3ccccc3)C(=O)C21 (stereo unspecified)	> 100				> 100 µM					> 100 µM	> 100		> 100 µM	> 100						> 100
COc1ccc2c3c(c(C(=O)c4ccccc4)oc13)CCC2	> 100		> 100 µM		> 100 µM		> 100	> 100		> 100 µM	> 100		> 100 µM							> 100
CC(C(N)C(=O)NC(C(=O)O)C1OC(n2ccc(=O)[nH]c2=O)C(O)C1O)C(O)c1ccc(O)cn1 (stereo unspecified)	> 100				> 100 µM		> 100	> 100		> 100 µM	> 100		> 100 µM	> 100						> 100
Oc1ccc(C2c3ccccc3Oc3ccccc32)c2cccnc12	> 100	2.08 µM	> 100 µM	1.6 µM	> 100 µM	2 µM	> 100	8.66	0.845 µM	> 100 µM	> 100	0.852 µM	> 100 µM		1.62	0.979	2.76		1.34	4.21
N#Cc1cc(S(=O)(=O)Nc2nnc(-c3ccccc3)c(-c3ccccc3)n2)c(SCc2ccccc2)cc1Cl	83.5	33.9 µM	87 µM	28.5 µM	56.7 µM	22.8 µM	48.7	51.4	17.8 µM	33.1 µM	46.4	18.5 µM	36.2 µM		23	28.3	24.2		27.4	80.4
CC1=C(O)/C(=C/C(C)CCC/C(C)=C/C=C/C(C)CCCc2ccoc2)OC1=O (stereo unspecified)	59.6		85.3 µM		> 100 µM		67.1			> 100 µM	66.3			69.3						> 100

From PubChem BioAssay (NCI)
